The values that follow come from patent US7048926B2, “Methods of agonizing and antagonizing FabK” (priority 2000, dated 2006).

≈ marks a conversion by molar mass, not a printed value. Where two headings read alike, the source gives them in different places. A value given as a limit tells only on which side of the number the result lay.

One experiment concerns the target T1, S. pneumoniae FabK (Streptococcus pneumoniae, UniProt Q9FBC5, T318A).
T1 construct: made in house
The experiment can be described thus: FabK enoyl-ACP reductase assay (NADH oxidation at 340 nm). It is filed as biochemical. Conditions: for inhibition of FabK (in words): 25 uM crotonoyl ACP, 50 uM NADH, 1.25 nM enzyme. As to the method: FabK catalyses the reduction of enoyl-ACPs with the concommitant oxidation of NADH. Crotonoyl-ACP can be prepared as described below. The reduction of crotonoyl-ACP to butyryl-ACP can be monitored by following the change in absorbance at 340 nm as NADH is oxidised.
Assays were carried out in Costar 3696 half-area plates in a final assay volume of 150 ul on a Spectramax platereader. Substrates, NADH and crotonoyl ACP, were incubated with FabK enzyme in 100 mM N-[2-acetamido]-2 irminodiacetic acid (ADA), pH 6.5, 100 mM NH4Cl, 4% glycerol at 30° C. and the reaction monitored at 340 nm. This assaying can also be performed using crotonyl CoA, NADPH or an NADH analogue as a substrate.
Using the above assay, compounds can be tested for inhibition of FabK. 30 ul of a candidate compounds is added to a well of the plate. 30 ul of a 250 uM stock of NADH is then added to the well. 60 ul of a 67.5 uM stock of Crotonoyl ACP is added to the well. The plate is incubated at 30° C. for 5 min. 30 ul of a 6.25 nM stock of enzyme is then added to the well (also preincubated at 30° C.) to initiate the reaction. The plate is then monitored at A340 nm for 30 min at 30° C. Positive controls are reactions without compound. Negative controls are reactions without enzyme and without compound. Final concentrations in the assay mixture are 25 uM crotonoyl ACP, 50 uM NADH, 1.25 nM enzyme.

In a further experiment the test system is FabI. The experiment is described as follows: FabI assay, enzyme source not stated. Type of experiment: biochemical. As for the experimental part:
(§1) FabI catalyses the reduction of enoyl-ACPs with the concommitant oxidation of NAD(P)H. Crotonoyl-ACP can be prepared as described in patent applications numbered PCT/US00/12104 and EP1997000306506. The reduction of enoyl-ACPs can be monitored by following the change in absorbance at 340 nm as NADH is oxidised. Enoyl ACPs (eg crotonoyl-ACP) can be replaced by enoyl-CoAs (eg crotonoyl-CoA)
(§2) Assays were carried out in Costar 3696 half-area plates in a final assay volume of 150 ul on a Spectramax platereader. Substrates, NADH and crotonoyl ACP, were incubated with FabI enzyme in 100 mM N-[2-acetamido]-2 iminodiacetic acid (ADA), pH 6.5, 4% glycerol at 30° C. and the reaction monitored at 340 nm. This assaying can also be performed using crotonyl CoA, NADPH or an NADH analogue as a substrate, or using a substrate suitable for FabK, such as those described above.
(§3) Using the above assay, compounds can be tested for inhibition of FabI. 30 ul of a candidate compounds is added to a well of the plate. 30 ul of a 250 uM stock of NADH is then added to the well. 60 ul of a 67.5 uM stock of Crotonoyl ACP is added to the well. The plate is incubated at 30° C. for 5 min. 30 ul of a 6.25 nM stock of enzyme is then added to the well (also preincubated at 30° C.) to initiate the reaction. The plate is then monitored at A340 nm for 30 min at 30° C. Positive controls are reactions without compound. […]

In the next experiment the test system is M. catarrhalis. The experiment is described as follows: Antibacterial MIC. Type of experiment: cell-based. Conditions: Moraxella catarrhalis, read-out: Antibacterial MIC.
The next experiment deals with E. coli FabI (Escherichia coli, UniProt P0AEK4). The experiment is described as follows: FabI assay, E. coli enzyme. Type of experiment: biochemical. As for the experimental part: as §1, §2, §3
For another experiment, the system named is S. pneumoniae 1629. The experiment is described as follows: Antibacterial MIC. It is filed as cell-based.
Another experiment deals with S. aureus WCUH29. The experiment can be described thus: Antibacterial MIC. Conditions: Staphylococcus aureus. Type of experiment: cell-based.
A further experiment relates to S. aureus Oxford. The experiment can be described thus: Antibacterial MIC. It is filed as cell-based. The following applies: Staphylococcus aureus, read-out: Antibacterial MIC.
Another experiment deals with H. influenzae NEMC1. The experiment is described as follows: Antibacterial MIC. Type of experiment: cell-based. Conditions: Haemophilus influenzae.
The subject of the next experiment is E. coli AcrAB^−. The experiment can be described thus: Antibacterial MIC. It is filed as cell-based. The following applies: Escherichia coli, read-out: Antibacterial MIC.
The next experiment has as its target S. aureus FabI (Staphylococcus aureus, UniProt Q6GI75). The experiment can be described thus: FabI assay, S. aureus enzyme. It is filed as biochemical. As to the method:
as §1, §2, §3

In the next experiment the test system is S. pneumoniae ERY2. The experiment can be described thus: Antibacterial MIC. Type of experiment: cell-based. Conditions: Streptococcus pneumoniae, ERY2, read-out: Antibacterial MIC.
The next experiment has as its system E. faecalis 1. The experiment can be described thus: Antibacterial MIC. Conditions: Enterococcus faecalis, 1, read-out: Antibacterial MIC. It is filed as cell-based.
In a further experiment the test system is H. influenzae Q1. The experiment is described as follows: Antibacterial MIC. It is filed as cell-based. The following applies: Haemophilus influenzae.
The next experiment concerns S. pneumoniae N1387. The experiment is described as follows: Antibacterial MIC. Type of experiment: cell-based. The following applies: Streptococcus pneumoniae.
The test system of a further experiment is E. faecalis 7. The experiment can be described thus: Antibacterial MIC. It is filed as cell-based.

T1 sequence (Q9FBC5 whole entry T318A): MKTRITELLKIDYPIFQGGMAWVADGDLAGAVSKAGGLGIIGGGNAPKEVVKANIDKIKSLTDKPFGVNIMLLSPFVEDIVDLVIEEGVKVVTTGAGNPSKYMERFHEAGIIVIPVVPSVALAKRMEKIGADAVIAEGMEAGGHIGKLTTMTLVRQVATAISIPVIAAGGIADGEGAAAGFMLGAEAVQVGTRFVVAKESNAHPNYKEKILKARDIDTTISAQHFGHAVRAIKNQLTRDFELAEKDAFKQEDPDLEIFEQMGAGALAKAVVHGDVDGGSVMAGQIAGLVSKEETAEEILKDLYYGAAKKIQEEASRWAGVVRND
Sequence of E. coli FabI (P0AEK4 whole entry): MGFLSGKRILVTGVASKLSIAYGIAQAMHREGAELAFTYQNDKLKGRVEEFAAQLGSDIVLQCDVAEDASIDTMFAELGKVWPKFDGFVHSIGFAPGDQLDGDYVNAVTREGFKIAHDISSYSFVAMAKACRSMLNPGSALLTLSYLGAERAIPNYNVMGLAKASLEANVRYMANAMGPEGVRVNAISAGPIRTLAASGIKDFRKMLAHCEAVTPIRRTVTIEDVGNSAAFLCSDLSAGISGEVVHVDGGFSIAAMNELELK
Sequence of S. aureus FabI (Q6GI75 whole entry): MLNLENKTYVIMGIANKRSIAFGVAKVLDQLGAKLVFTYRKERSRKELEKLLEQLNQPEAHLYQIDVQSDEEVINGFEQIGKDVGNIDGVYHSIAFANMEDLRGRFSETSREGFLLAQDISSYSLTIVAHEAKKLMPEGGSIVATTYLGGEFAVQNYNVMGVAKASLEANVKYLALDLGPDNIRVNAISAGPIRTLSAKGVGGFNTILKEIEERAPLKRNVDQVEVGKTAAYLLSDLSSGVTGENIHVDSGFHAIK

With `Cc1[nH]c2ccccc2c1CN(C)C(=O)/C=C/c1cnc2c(c1)CCC(=O)N2` [Formula II], the “inhibition of FabK (in words)” value on S. pneumoniae FabK was “inhibit”. Also, in the experiment on FabI, the “inhibition of FabI (in words)” value is “inhibit”.
For `CN(Cc1cn(C)c2ccccc12)C(=O)/C=C/c1cnc2c(c1)CCC(=O)N2` [Formula I], the “inhibition of FabK (in words)” value on S. pneumoniae FabK is “inhibit”. Further, in the experiment on FabI, the “inhibition of FabI (in words)” value is “inhibit”.
Take `Cl.N` [NH4^+]: the “activation of FabK reaction over the reaction with no monovalent cations” value on S. pneumoniae FabK (NH4^+ at 100 mM) is “about 300 fold”.
Regarding `CN(Cc1cn(C)c2ccccc12)C(=O)/C=C/c1cnc2c(c1)CCC(=O)N2` [SB-611113], the IC50 at S. pneumoniae FabK was 5.7 µM; against E. coli FabI it was less than 0.06 µM; on S. aureus FabI, 0.1 µM. For the same molecule, the MIC was no more than 0.06 µg/mL with M. catarrhalis; 8 µg/mL (≈ 21.4 µM) with S. pneumoniae 1629 (Streptococcus pneumoniae, 1629, read-out: Antibacterial MIC); no more than 0.06 µg/mL in the experiment with S. aureus WCUH29 (WCUH29, read-out: Antibacterial MIC); no more than 0.06 µg/mL with S. aureus Oxford; 32 µg/mL (≈ 85.5 µM) with H. influenzae NEMC1 (NEMC1, read-out: Antibacterial MIC); 8 µg/mL (≈ 21.4 µM) in the experiment with E. coli AcrAB^−. The MIC in the experiment on S. pneumoniae ERY2 was 8 µg/mL (≈ 21.4 µM); with E. faecalis 1, 16 µg/mL (≈ 42.7 µM); in the experiment with H. influenzae Q1 (Q1, read-out: Antibacterial MIC) it was 16 µg/mL (≈ 42.7 µM); in the experiment with S. pneumoniae N1387 (N1387, read-out: Antibacterial MIC), 16 µg/mL (≈ 42.7 µM); in the experiment with E. faecalis 7 (Enterococcus faecalis, 7, read-out: Antibacterial MIC), 16 µg/mL (≈ 42.7 µM).
`Cc1[nH]c2ccccc2c1CN(C)C(=O)/C=C/c1cnc2c(c1)CCC(=O)N2` [SB-641197] had an IC50 against S. pneumoniae FabK of 5.2 µM. Also, the MIC was no more than 0.06 µg/mL in the experiment with M. catarrhalis (M. catarrhalis); 8 µg/mL (≈ 21.4 µM) in the experiment on S. pneumoniae 1629 (Streptococcus pneumoniae, S. pneumoniae 1629, read-out: Antibacterial MIC); no more than 0.06 µg/mL in the experiment with S. aureus WCUH29 (S. aureus WCUH29, read-out: Antibacterial MIC); no more than 0.06 µg/mL in the experiment with S. aureus Oxford; 2 µg/mL (≈ 5.34 µM) in the experiment on H. influenzae NEMC1 (H. influenzae NEMC1, read-out: Antibacterial MIC); 0.5 µg/mL (≈ 1.34 µM) in the experiment with E. coli AcrAB^−. Besides, the MIC in the experiment on S. pneumoniae ERY2 is 8 µg/mL (≈ 21.4 µM); with E. faecalis 1, 16 µg/mL (≈ 42.7 µM); with H. influenzae Q1 (H. influenzae Q1, read-out: Antibacterial MIC), 1 µg/mL (≈ 2.67 µM); in the experiment on S. pneumoniae N1387 (S. pneumoniae N1387, read-out: Antibacterial MIC) it was 16 µg/mL (≈ 42.7 µM); in the experiment on E. faecalis 7 (Enterococcus faecalis, E. faecalis 7, read-out: Antibacterial MIC) it was 16 µg/mL (≈ 42.7 µM).

What is called IC50 is the point on the concentration scale where inhibition reaches its midpoint. Read a low IC50 as inhibition by little substance.
